# Assays:
# CAL-85-1 [1] = assay: drug sensitivity score (DSS), CellTiter-Glo (DSS (AUC-based score)); higher = stronger drug effect (viability inhibition or cytotoxicity); extreme values may be limits of the assay; conditions: incubation time: 72 h
# Method in brief: (§1)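 Each compound occupied 5 concentrations in 10-fold steps over its own 10,000-fold range in 384-well plates, into which breast cancer cell lines were seeded as 20 µl suspension. Following 72 h of incubation, CellTox Green fluorescence (485/520 nm) was measured, and CellTiter-Glo luminescence was measured after 10 min at room temperature. Plates were individually normalised to 0.1 % DMSO and a positive kill control. From the area under the fitted dose-response curve, a drug sensitivity score was calculated.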
# CAL-148 [2] = assay: as above; conditions: incubation time: 72 h
# Method in brief: as §1
# Hs578T [3] = conditions: 72 h
# Description: (§2)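 Drug sensitivity and resistance testing (DSRT) of breast cancer cell lines in 384-well plates, 5 concentrations in 10-fold dilutions over a compound-specific 10,000-fold range. After 72 h, cytotoxicity was read by CellTox Green fluorescence and viability by CellTiter-Glo luminescence (multiplexed), normalised to DMSO and benzethonium chloride controls. EC50 is the inflection point of the fitted dose-response curve (bottom asymptote free, so it can be relative for partial curves) and is censored at the highest tested concentration. Rows with DSS 0 (no meaningful response) were excluded.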
# MFM-223 [4] = conditions: 72 h
# Method in brief: (§3)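 In this assay, breast cancer cell lines spent 72 h with compound at 5 concentrations in 10-fold steps over a compound-specific 10,000-fold range. The first readout was cell death by CellTox Green fluorescence, and the second was viability by CellTiter-Glo luminescence, each normalised per plate to 0.1 % DMSO and a positive kill control. EC50 came from the dose-response curves, censored at the top concentration.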
# DU-4475 [5] = conditions: 72 h
# Method in brief: as §3
# CAL-85-1 [6] = conditions: 72 h
# Description: as §2
# MDA-MB-453 = conditions: 72 h
# Description: as §2
# HCC1599 [7] = conditions: 72 h
# Method in brief: as §3
# CAL-148 [8] = conditions: 72 h
# Method in brief: as §3
# HCC1143 [9] = conditions: 72 h
# Method in brief: as §3
# MDA-MB-436 [10] = conditions: 72 h
# Description: as §2
# CAL-51 [11] = conditions: 72 h
# Description: as §2
# CAL-148 [12] = conditions: 72 h; remark: listed apart in the source
# Description: as §2
# SK-BR-3 = conditions: 72 h
# Method in brief: (§4)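 Plates of 384 wells holding compound in 5 µl medium received breast cancer cell lines in 20 µl suspension and were incubated 72 h. CellTiter-Blue (2.5 µl, 2 h, 37 °C) was used for viability, read at 560/590 nm, and every plate was normalised to vehicle and a positive kill control and assessed by Z'-factor. The EC50 derives from a percent-inhibition dose-response curve fit censored at the highest concentration, leaving out rows whose drug sensitivity score was zero.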
# MFM-223 [13] = conditions: 72 h; remark: listed apart in the source
# Method in brief: as §4
# BT-549 [14] = conditions: 72 h
# Method in brief: as §4
# BT-474 [15] = conditions: 72 h
# Method in brief: as §4
# Hs578T [16] = conditions: 72 h; remark: listed apart in the source
# Method in brief: as §4
# HCC1599 [17] = conditions: 72 h; remark: listed apart in the source
# Method in brief: as §4
# MDA-MB-231 [18] = conditions: 72 h
# Method in brief: as §4
# MDA-MB-436 [19] = conditions: 72 h; remark: listed apart in the source
# Method in brief: as §4
# MDA-MB-468 [20] = conditions: 72 h
# Method in brief: as §4
# CAL-120 [21] = conditions: 72 h
# Method in brief: as §4
# HCC1143 [22] = conditions: 72 h; remark: listed apart in the source
# Method in brief: as §4
# HCC1937 [23] = conditions: 72 h
# Method in brief: as §4
# DU-4475 [24] = conditions: 72 h; remark: listed apart in the source
# Method in brief: as §4
# CAL-85-1 [25] = conditions: 72 h; remark: listed apart in the source
# Method in brief: as §4
# CAL-51 [26] = conditions: 72 h; remark: listed apart in the source
# Method in brief: as §4
# HDQ-P1 [27] = conditions: 72 h
# Method in brief: as §4
# CAL-148 [28] = conditions: 72 h; remark: listed apart in the source
# Method in brief: as §4
# HDQ-P1 [29] = conditions: 72 h; remark: listed apart in the source
# Method in brief: as §3
# MFM-223 [30] = conditions: 72 h; remark: listed apart in the source
# Description: as §2
# BT-549 [31] = conditions: 72 h; remark: listed apart in the source
# Description: as §2
# MDA-MB-231 [32] = conditions: 72 h; remark: listed apart in the source
# Description: as §2
# CAL-120 [33] = conditions: 72 h; remark: listed apart in the source
# Description: as §2
# HCC1937 [34] = conditions: 72 h; remark: listed apart in the source
# Description: as §2
# BT-474 [35] = conditions: 72 h; remark: listed apart in the source
# Description: as §2
# MDA-MB-468 [36] = conditions: 72 h; remark: listed apart in the source
# Description: as §2
# HCC1143 [37] = conditions: 72 h; remark: listed apart in the source
# Description: as §2
# HDQ-P1 [38] = conditions: 72 h; remark: listed apart in the source
# Description: as §2
SMILES,drug sensitivity score (CAL-85-1 [1]),drug sensitivity score (CAL-148 [2]),"EC50, CellTiter-Glo (MFM-223 [4]) [nM]","EC50, CellTiter-Glo (DU-4475 [5]) [nM]","EC50, CellTox Green (CAL-85-1 [6]) [nM]","EC50, CellTiter-Glo (HCC1599 [7]) [nM]","EC50, CellTiter-Glo (CAL-148 [8]) [nM]","EC50, CellTiter-Glo (HCC1143 [9]) [nM]","EC50, CellTox Green (CAL-51 [11]) [nM]","EC50, CellTox Green (CAL-148 [12]) [nM]","EC50, CellTiter-Blue viability (SK-BR-3) [nM]","EC50, CellTiter-Blue viability (BT-549 [14]) [nM]","EC50, CellTiter-Blue viability (BT-474 [15]) [nM]","EC50, CellTiter-Blue viability (Hs578T [16]) [nM]","EC50, CellTiter-Blue viability (HCC1599 [17]) [nM]","EC50, CellTiter-Blue viability (MDA-MB-231 [18]) [nM]","EC50, CellTiter-Blue viability (CAL-120 [21]) [nM]","EC50, CellTiter-Blue viability (CAL-85-1 [25]) [nM]","EC50, CellTiter-Blue viability (CAL-51 [26]) [nM]","EC50, CellTiter-Blue viability (CAL-148 [28]) [nM]",also measured
Nc1ncnc2c1c(COc1cccc(Cl)c1)nn2C1CCOCC1,0,0,–,–,–,–,–,–,–,–,–,–,–,–,–,–,–,–,–,–,"EC50, CellTox Green (Hs578T [3]): > 10000 nM"
COc1ccccc1S(=O)(=O)Nc1ccc2c(c1)CN(C)C(=O)N2 [PFI-1],3.01,0,3190,2670,9560,–,–,–,–,–,–,–,–,–,–,–,–,–,–,–,–
Cc1ccc(NC(=O)c2ccc(CN3CCN(C)CC3)cc2)cc1Nc1nccc(-c2cccnc2)n1 [Imatinib],0,0,–,–,–,–,–,–,–,–,–,–,–,–,–,–,–,–,–,–,"EC50, CellTox Green (Hs578T [3]): > 10000 nM; EC50, CellTox Green (MDA-MB-453): 2820 nM"
CN(C)CCN1C(=O)c2cccc3cc(N)cc(c23)C1=O [Amonafide],2.16,4.44,7400,3300,–,> 10000,4300,3330,6260,6190,5740,9680,> 10000,9380,9620,2240,3370,4450,3320,1830,"EC50, CellTox Green (MDA-MB-436 [10]): 44.4 nM; EC50, CellTiter-Blue viability (MFM-223 [13]): 7280 nM; EC50, CellTiter-Blue viability (MDA-MB-436 [19]): 2760 nM; EC50, CellTiter-Blue viability (MDA-MB-468 [20]): 6670 nM; EC50, CellTiter-Blue viability (HCC1143 [22]): 3710 nM; EC50, CellTiter-Blue viability (HCC1937 [23]): 1110 nM; EC50, CellTiter-Blue viability (DU-4475 [24]): 3240 nM; EC50, CellTiter-Blue viability (HDQ-P1 [27]): 9740 nM"
CO[C@H]1C[C@@H]2CC[C@@H](C)[C@@](O)(O2)C(=O)C(=O)N2CCCC[C@H]2C(=O)O[C@H]([C@H](C)C[C@@H]2CC[C@@H](OCCO)[C@H](OC)C2)CC(=O)[C@H](C)/C=C(\C)[C@@H](O)[C@@H](OC)C(=O)[C@H](C)C[C@H](C)/C=C/C=C/C=C/1C [Everolimus],10.6,13.4,0.29,1.24,–,–,0.38,0.39,–,–,0.945,0.381,0.289,0.13,11.8,26.9,0.304,0.219,1.14,0.675,"EC50, CellTiter-Glo (HDQ-P1 [29]): 5.68 nM; EC50, CellTox Green (MFM-223 [30]): 8.31 nM; EC50, CellTox Green (BT-549 [31]): > 100 nM; EC50, CellTiter-Blue viability (MFM-223 [13]): 0.27 nM; EC50, CellTiter-Blue viability (HCC1143 [22]): 0.14 nM; EC50, CellTiter-Blue viability (HCC1937 [23]): 2.95 nM; EC50, CellTiter-Blue viability (DU-4475 [24]): 2.34 nM; EC50, CellTiter-Blue viability (HDQ-P1 [27]): 0.35 nM"
O=C1NC(=O)[C@@H](c2cn3c4c(cccc24)CCC3)[C@@H]1c1c[nH]c2ccccc12 [Tivantinib],3.66,1.93,–,222,266,973,810,> 1000,671,6.67,597,340,613,592,331,676,398,543,674,759,"EC50, CellTox Green (Hs578T [3]): 96.6 nM; EC50, CellTox Green (MDA-MB-231 [32]): 474 nM; EC50, CellTox Green (CAL-120 [33]): 399 nM; EC50, CellTiter-Blue viability (MDA-MB-436 [19]): 43.5 nM; EC50, CellTiter-Blue viability (MDA-MB-468 [20]): 578 nM; EC50, CellTiter-Blue viability (HCC1937 [23]): 99 nM; EC50, CellTiter-Blue viability (DU-4475 [24]): 847 nM"
CC(C)(C#N)c1cc(Cn2cncn2)cc(C(C)(C)C#N)c1 [Anastrozole],0,0,–,–,–,–,–,–,–,–,–,–,–,–,–,–,–,–,–,–,"EC50, CellTox Green (MDA-MB-453): > 10000 nM"
C[C@]12CC[C@H](O)CC1=CC[C@@H]1[C@@H]2CC[C@]2(C)C(c3cccnc3)=CC[C@@H]12 [Abiraterone],0,0,–,–,–,–,–,–,–,–,–,–,–,–,–,–,–,–,–,–,–
CNNCc1ccc(C(=O)NC(C)C)cc1 [Procarbazine],0,0,–,–,–,–,–,–,–,–,–,–,–,–,–,–,–,–,–,–,–
Cn1c(=O)n(-c2ccc(C(C)(C)C#N)cc2)c2c3cc(-c4cnc5ccccc5c4)ccc3ncc21 [Dactolisib],15.3,14.6,14.8,42.8,197,–,18.7,17.9,–,100,–,–,–,–,–,–,–,–,–,–,"EC50, CellTiter-Glo (HDQ-P1 [29]): 12.8 nM; EC50, CellTox Green (MFM-223 [30]): 579 nM; EC50, CellTox Green (HCC1937 [34]): 80.7 nM"
Nc1nc(OCc2cc(Br)cs2)c2[nH]cnc2n1 [Lomeguatrib],0,0,–,–,–,–,–,–,–,–,–,–,–,–,–,–,–,–,–,–,–
COc1ccc(-c2ccc3c(N4CCOC[C@@H]4C)nc(N4CCOC[C@@H]4C)nc3n2)cc1CO [AZD8055],22.2,22.8,20.3,229,> 10000,152,64.1,40.4,5.2,30.7,20.1,61,83.8,36.9,62.8,47.4,45.4,34.7,21.9,34.5,"EC50, CellTiter-Glo (HDQ-P1 [29]): 30.5 nM; EC50, CellTox Green (BT-474 [35]): 9150 nM; EC50, CellTox Green (MDA-MB-468 [36]): 6940 nM; EC50, CellTox Green (HCC1143 [37]): 1470 nM; EC50, CellTiter-Blue viability (MFM-223 [13]): 18.7 nM; EC50, CellTiter-Blue viability (MDA-MB-436 [19]): 106 nM; EC50, CellTiter-Blue viability (MDA-MB-468 [20]): 149 nM; EC50, CellTiter-Blue viability (HCC1143 [22]): 79.2 nM; EC50, CellTiter-Blue viability (HCC1937 [23]): 15.4 nM; EC50, CellTiter-Blue viability (DU-4475 [24]): 104 nM; EC50, CellTiter-Blue viability (HDQ-P1 [27]): 23.8 nM"
CN1CCN(CCOc2cc(OC3CCOCC3)c3c(Nc4c(Cl)ccc5c4OCO5)ncnc3c2)CC1 [Saracatinib],8.75,1.84,–,–,2940,5900,2550,1330,371,–,6750,1510,1540,–,–,13.2,567,757,700,447,"EC50, CellTiter-Glo (HDQ-P1 [29]): 541 nM; EC50, CellTox Green (BT-474 [35]): 8130 nM; EC50, CellTox Green (MDA-MB-436 [10]): 1620 nM; EC50, CellTox Green (HDQ-P1 [38]): 6610 nM; EC50, CellTiter-Blue viability (MDA-MB-436 [19]): > 10000 nM; EC50, CellTiter-Blue viability (MDA-MB-468 [20]): 1410 nM; EC50, CellTiter-Blue viability (HDQ-P1 [27]): 615 nM"

# — the supplement of paper PMC4862054
